Experimental data from US9771372B2, “Compounds useful as S100-inhibitors” (Active Biotech AB, priority 2014, dated 2017).

Target: T1, interaction between biotinylated human S100A9 and human RAGE-Fc (Homo sapiens, UniProt P06702)
T1 construct: made in house; host or cells: E. coli BL21(DE3)/pET1120 (pLR757)
T1 sequence (P06702 1-114): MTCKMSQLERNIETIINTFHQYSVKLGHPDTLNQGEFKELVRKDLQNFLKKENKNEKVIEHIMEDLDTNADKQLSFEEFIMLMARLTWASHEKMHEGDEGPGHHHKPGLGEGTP
Test: AlphaScreen inhibition assay, Biot-hS100A9:hRAGE-Fc (S100A9-RAGE inhibition assay)
Type: binding
Settings: biot-hS100A9 and rhRAGE-Fc, Ca2+ and Zn2+ in buffer
Excerpt: FIG. 1 is a schematic representation of an assay of the inhibition of the interaction between biotinylated human S100A9 and human RAGE-Fc using a small molecule S100A9 binder.
Inhibition Assay, Biot-hS100A9:hRAGE-Fc
The AlphaScreen (Amplified Luminescent Proximity Homogeneous Assay) contains two types of beads, Alpha Donor beads and Acceptor beads (PerkinElmer). Upon laser excitation at 680 nm a photosensitizer in the Donor bead converts ambient oxygen to a more excited singlet state. The singlet oxygen molecule diffuses (maximum 200 nm) to react with a thioxene derivative in the Acceptor bead and generates a chemiluminescence reaction. Fluorophores in the Acceptor bead subsequently emit light at 520-620 nm which can be detected in the EnVision® Multilabel plate Reader (PerkinElmer). The beads are light sensitive and all work with the beads is performed under subdued light conditions or using green filters on light sources (Roscolux Chroma Green #389, Rosco).
In the AlphaScreen Inhibition Assay described here, protein A (Staphylococcus aureus) conjugated Acceptor beads are used together with streptavidin coated Donor beads (Perkin Elmer 6760617M). The Acceptor beads are pre-incubated with Fc-tagged recombinant human RAGE (rhRAGE-Fc) allowing binding of the rhRAGE-Fc to protein A on the beads. Biotinylated human S100A9 (biot-hS100A9) is pre-incubated with the low molecular test compounds. The pre-mixes are then added to the wells of a micro-plate and incubated allowing interaction between biot-hS100A9 and rhRAGE-Fc. Subsequent addition of streptavidin coated Donor beads causes binding of the streptavidin to the biotinylated hS100A9. After an additional incubation the signal is measured.
Without inhibitory compounds, the interaction of biot-hS100A9 to rhRAGE-Fc will bring the Acceptor and Donor beads in close proximity thus generating a high signal. With an inhibitor present the complex will not form resulting in a decreased signal.
The AlphaScreen assay method is used for screening of the inhibitory effect of different compound samples at fixed concentrations or for IC50 determination by varying the compound concentrations. Samples of test compounds and references are prepared from solutions in DMSO. Relevant reference inhibitors and DMSO are used as controls for defined inhibition and non-inhibition, respectively in the assay. The percent inhibition in assay for test compounds and references are calculated by comparing their obtained assay signals with the signal values for the control with only DMSO (no compound).
Assay concentration of biotinylated hS100A9 and rhRAGE-Fc are batch dependent, and are determined and defined by separate cross-titration experiments using this AlphaScreen inhibition method to verify the optimal setup regarding signal strength and achievement of a defined inhibition with relevant reference compounds. The Final assay concentrations of Acceptor and Donor beads are 20 μg/mL.
Assay buffer is prepared by adding CaCl2 and ZnCl2 to HBS-P and is used freshly prepared in the experiment.
Biotin-hS100A9 solution for the experiment is prepared by dilution of appropriate amount of stock solution biot-hS100A9 in assay buffer (with CaCl2 and ZnCl2) and incubation in room temperature for 30 minutes.
rhRAGE-Fc solution for the experiment is prepared by dilution appropriate amount of rhRAGE-Fc stock in assay buffer.
Protein A Acceptor beads are diluted in assay buffer and are added to an equal volume of the prepared diluted rhRAGE-Fc solution. The beads are light sensitive. The vial is covered with aluminum foil and incubated at room temperature in the dark until biot-hS100A9+compound incubation is finished (see below).
Streptavidin-coated Donor beads are diluted in assay buffer. The beads are very light sensitive. The vial is covered with aluminum foil and incubated at room temperature in the dark until use (see below).
Samples of test compounds, appropriate references and DMSO control are diluted in assay buffer. […]

Compound | IC50
Cc1cccc2c1nc1n2C(NC(=O)CCC2CCCC2)(C(F)(F)F)C(=O)N1 (centres unmarked) [Example 81, 3-cyclopentyl-N-[9-methyl-4-oxo-3-(trifluoromethyl)-2,5,7-triazatricyclo[6.4.0.0^2,6]dodeca-1(12),6,8,10-tetraen-3-yl]propanamide] | 5.6 µM
O=C(CCC1CCCC1)NC1(C(F)(F)F)C(=O)Nc2nc3c(C(=O)O)cccc3n21 (single isomer, unassigned) [Example 231b, 3-(3-cyclopentylpropanamido)-4-oxo-3-(trifluoromethyl)-2,5,7-triazatricyclo[6.4.0.0^2,6]dodeca-1(12),6,8,10-tetraene-9-carboxylic acid] | 0.84 µM
O=C(CCC1CCCC1)NC1(C(F)(F)F)C(=O)Nc2nc3c(Cl)cccc3n21 (centres unmarked) [Example 85, N-[9-chloro-4-oxo-3-(trifluoromethyl)-2,5,7-triazatricyclo[6.4.0.0^2,6]dodeca-1(12),6,8,10-tetraen-3-yl]-3-cyclopentylpropanamide] | 2.6 µM
COCCNc1nc(C(=O)NC2(C(F)(F)F)C(=O)Nc3nc4c(C#N)c(Cl)ccc4n32)cs1 (centres unmarked) [Example 139, N-[10-chloro-9-cyano-4-oxo-3-(trifluoromethyl)-2,5,7-triazatricyclo[6.4.0.0^2,6]dodeca-1(8),6,9,11-tetraen-3-yl]-2-[(2-methoxyethyl)amino]-1,3-thiazole-4-carboxamide] | 1.27 µM
O=C(NC1(C(F)(F)F)C(=O)Nc2nc3cc(Cl)c(Cl)cc3n21)[C@@H]1CCCN1 (mixture of isomers) [Example 41, (2S)—N-[10,11-dichloro-4-oxo-3-(trifluoromethyl)-2,5,7-triaza-tricyclo[6.4.0.0^2,6]dodeca-1(12),6,8,10-tetraen-3-yl]pyrrolidine-2-carboxamide] | 2 µM
COCCNc1cccc(C(=O)NC2(C(F)(F)F)C(=O)Nc3nc4cc(C)c(C)cc4n32)n1 (single isomer, unassigned) [Example 220b, N-[10,11-dimethyl-4-oxo-3-(trifluoromethyl)-2,5,7-triazatricyclo[6.4.0.0^2,6]dodeca-1(12),6,8,10-tetraen-3-yl]-6-[(2-methoxyethyl)amino]pyridine-2-carboxamide] | 4 µM
O=C(NC1(C(F)(F)F)C(=O)Nc2nc3cc(Cl)c(Cl)cc3n21)C1CC2(CNC2)C1 (centres unmarked) [Example 40, N-[10,11-dichloro-4-oxo-3-(trifluoromethyl)-2,5,7-triazatricyclo[6.4.0.0^2,6]dodeca-1(12),6,8,10-tetraen-3-yl]-2-azaspiro[3.3]heptane-6-carboxamide] | 3.3 µM
O=C(NC1(C(F)(F)F)C(=O)Nc2nc3cc(Cl)c(Cl)cc3n21)C1CN(c2ccccn2)C1 (centres unmarked) [Example 52, N-[10,11-dichloro-4-oxo-3-(trifluoromethyl)-2,5,7-triazatricyclo[6.4.0.0^2,6]dodeca-1(12),6,8,10-tetraen-3-yl]-1-(pyridin-2-yl)azetidine-3-carboxamide] | 0.7 µM
Cc1cc2nc3n(c2cc1C)C(NC(=O)[C@@H](C)c1ccccc1)(C(F)(F)F)C(=O)N3 (single isomer, unassigned) [Example 144] | 6.41 µM
O=C(NC1(C(F)(F)F)C(=O)Nc2nc3ccccc3n21)c1cc(Cl)cc(Cl)c1 (centres unmarked) [Example 12, 3,5-dichloro-N-[4-oxo-3-(trifluoromethyl)-2,5,7-triazatricyclo[6.4.0.0^2,6]dodeca-1(12),6,8,10-tetraen-3-yl]benzamide] | 3 µM
CC(C)CNc1nc(C(=O)NC2(C(F)(F)F)C(=O)Nc3nc4cc(Cl)c(Cl)cc4n32)cs1 (centres unmarked) [Example 237, N-[10,11-dichloro-4-oxo-3-(trifluoromethyl)-2,5,7-triazatricyclo[6.4.0.0^2,6]dodeca-1(12),6,8,10-tetraen-3-yl]-2-[(2-methylpropyl)amino]-1,3-thiazole-4-carboxamide] | 1.81 µM
Cc1cc2nc3n(c2cc1C)C(NC(=O)CCC1CCCC1)(C(F)(F)F)C(=O)N3 (centres unmarked) [Example 27, 3-cyclopentyl-N-[10,11-dimethyl-4-oxo-3-(trifluoromethyl)-2,5,7-triazatricyclo[6.4.0.0^2,6]-dodeca-1(12),6,8,10-tetraen-3-yl]propanamide] | 0.4 µM
COCCNc1cccc(C(=O)NC2(C(F)(F)F)C(=O)Nc3nc4cc(C)c(C)cc4n32)n1 (centres unmarked) [Example 111, N-[10,11-dimethyl-4-oxo-3-(trifluoromethyl)-2,5,7-triazatricyclo[6.4.0.0^2,6]dodeca-1(8),6,9,11-tetraen-3-yl]-6-[(2-methoxyethyl)amino]pyridine-2-carboxamide] | 1.62 µM

Further lines, results first:

IC50 | Compound
2.26 µM | O=C(CCC1CCCC1)NC1(C(F)(F)F)C(=O)Nc2nc3c(C(F)(F)F)cc(Br)cc3n21 (centres unmarked) [Example 129, N-[11-bromo-4-oxo-3,9-bis(trifluoromethyl)-2,5,7-triazatricyclo[6.4.0.0^2,6]dodeca-1(8),6,9,11-tetraen-3-yl]-3-cyclopentylpropanamide]
4.7 µM | COCC(=O)N1CCC(C(=O)NC2(C(F)(F)F)C(=O)Nc3nc4cc(Cl)c(Cl)cc4n32)CC1 (centres unmarked) [Example 44, N-[10,11-dichloro-4-oxo-3-(trifluoromethyl)-2,5,7-triazatricyclo[6.4.0.0^2,6]dodeca-1(12),6,8,10-tetraen-3-yl]-1-(2-methoxyacetyl)piperidine-4-carboxamide]
0.58 µM | COc1ccc(-c2cccc3c2nc2n3C(NC(=O)CCC3CCCC3)(C(F)(F)F)C(=O)N2)cc1 (centres unmarked) [Example 186, 3-cyclopentyl-N-[9-(4-methoxyphenyl)-4-oxo-3-(trifluoromethyl)-2,5,7-triazatricyclo[6.4.0.0^2,6]dodeca-1(12),6,8,10-tetraen-3-yl]propanamide]
1.97 µM | O=C(CCC1CCCC1)NC1(C(F)(F)F)C(=O)Nc2nc3c(-c4ccccc4O)cccc3n21 (centres unmarked) [Example 198, 3-cyclopentyl-N-[9-(2-hydroxyphenyl)-4-oxo-3-(trifluoromethyl)-2,5,7-triazatricyclo[6.4.0.0^2,6]dodeca-1(12),6,8,10-tetraen-3-yl]propanamide]
1.44 µM | Cc1cc2nc3n(c2cc1C)C(NC(=O)[C@H](C)OCC1CCCC1)(C(F)(F)F)C(=O)N3 (single isomer, unassigned) [Example 215a]
3.6 µM | O=C(CC1CCCCC1)NC1(C(F)(F)F)C(=O)Nc2nc3cc(F)c(F)cc3n21 (centres unmarked) [Example 74, 2-cyclohexyl-N-[10,11-difluoro-4-oxo-3-(trifluoromethyl)-2,5,7-triazatricyclo[6.4.0.0^2,6]-dodeca-1(8),6,9,11-tetraen-3-yl]acetamide]
1.45 µM | O=C(CCC1CCCC1)NC1(C(F)(F)F)C(=O)Nc2nc3c(Br)cc(Cl)cc3n21 (centres unmarked) [Example 181, N-[9-bromo-11-chloro-4-oxo-3-(trifluoromethyl)-2,5,7-triazatricyclo[6.4.0.0^2,6]dodeca-1(12),6,8,10-tetraen-3-yl]-3-cyclopentylpropanamide]
3.44 µM | CO[C@H](C(=O)NC1(C(F)(F)F)C(=O)Nc2nc3cc(C)c(C)cc3n21)c1ccccc1 (single isomer, unassigned) [Example 147b]
0.49 µM | O=C(CCC1CCCC1)NC1(C(F)(F)F)C(=O)Nc2nc3c(C(=O)O)cc(Cl)cc3n21 (centres unmarked) [Example 233, 11-chloro-3-(3-cyclopentylpropanamido)-4-oxo-3-(trifluoromethyl)-2,5,7-triazatricyclo[6.4.0.0^2,6]dodeca-1(12),6,8,10-tetraene-9-carboxylic acid]
3.9 µM | CC(=O)N1CC(C(=O)NC2(C(F)(F)F)C(=O)Nc3nc4cc(Cl)c(Cl)cc4n32)C1 (centres unmarked) [Example 49, 1-acetyl-N-[10,11-dichloro-4-oxo-3-(trifluoromethyl)-2,5,7-triazatricyclo-[6.4.0.0^2,6]-dodeca-1(12),6,8,10-tetraen-3-yl]azetidine-3-carboxamide]
